Reference: US5164298A (priority 1988, dated 1992)
Entries after “also recorded” stand apart in the source; their conditions may differ. Like-named read-outs stand apart in the source and are kept apart here.

Columns and labels:
[1] = molecular target: T1, Shiga toxin (Shigella dysenteriae, UniProt Q7BQ98); conditions: cited from earlier work
[2] = molecular target: T2, VT2 (Escherichia coli, UniProt Q07871); assay type: cell-based, E. coli
[3] = molecular target: verocytotoxin 1 (Bacteriophage H30, UniProt P69178)
[4] = molecular target: T2, VT2; assay type: binding, E. coli
[5] = molecular target: T1, Shiga toxin; conditions: cited from earlier work; remark: listed apart in the source
[6] = molecular target: VT1 toxin (Bacteriophage H30, UniProt P69178)
[7] = natural verocytotoxin, glycolipid dotted at 0.01-50 nmol
[8] = purified natural VT1, tlc or dot blot, antiverocytotoxin and immunoperoxidase conjugate

Chain of verocytotoxin 1 (P69178 whole entry, looked up): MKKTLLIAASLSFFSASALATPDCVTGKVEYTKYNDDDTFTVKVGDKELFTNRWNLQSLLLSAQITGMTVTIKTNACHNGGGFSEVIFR
T1 sequence (Q7BQ98 whole entry, looked up): as the sequence (P69178 whole entry, looked up) above
Chain of VT1 toxin (P69178 whole entry, looked up): as above

CCCCCCCCCCCCCC=CC(O)C(COC1OC(CO)C(OC2OC(CO)C(OC3OC(CO)C(O)C(OC4OC(CO)C(O)C(O)C4NC(C)=O)C3O)C(O)C2O)C(O)C1O)NC(=O)CCCCCCCCCCCCCCC (stereo not drawn) [GbOse4 cer, globotetraosyl ceramide]
Shiga toxin binding to glycolipid [1]: residual binding
VT2 binding by liposomal adsorption [2]: at least minimal
verocytotoxin binding above background (125I-Protein A binding curves) [3, 7]: No binding above background
verocytotoxin binding to glycolipid [3, 8]: No binding
VT2 binding to glycolipid [4]: no binding; also recorded: does not bind

CCCCCCCCCCCCCC=CC(O)C(CO[C@@H]1O[C@H](CO)[C@@H](O[C@@H]2O[C@H](CO)[C@H](O)[C@H](O)[C@H]2O)[C@H](O)[C@H]1O)NC(=O)CCCCCCCCCCCCCCC (stereo partly drawn) [LacCer, lactosyl ceramide]
verocytotoxin binding above background (125I-Protein A binding curves) [3, 7]: No binding above background
verocytotoxin binding to glycolipid [3, 8]: No binding
VT2 binding to glycolipid [4]: no binding

N[C@H]1[C@H](O[C@H]2[C@H](O)[C@@H](N)[C@H](O[C@H]3[C@H](O)[C@@H](N)C(O)O[C@@H]3CO)O[C@@H]2CO)O[C@H](CO)[C@@H](O)[C@@H]1O (stereo partly drawn) [chiotriose]
effect on Shiga toxin Gb0se3 cer binding [1]: little effect
protection against Shiga toxin cytotoxicity [5]: protects against cytotoxicity

CCCCCCCCCCCCC/C=C/[C@@H](O)[C@@H](N)CO[C@@H]1O[C@H](CO)[C@@H](O[C@@H]2O[C@H](CO)[C@H](O[C@H]3O[C@H](CO)[C@H](O)[C@H](O)[C@H]3O)[C@H](O)[C@H]2O)[C@H](O)[C@H]1O [deacylated globotriosyl ceramide]
amount of purified toxin the assay can detect [6]: less than 5 pg
effect of deacylation on verocytotoxin binding [6]: does not inhibit verocytotoxin binding

CCCCCCCCCCCCCC=CC(O)C(CO[C@@H]1O[C@H](CO)[C@H](O[C@H]2O[C@H](CO)[C@H](O)[C@H](O)[C@H]2O)[C@H](O)[C@H]1O)NC(=O)CCCCCCCCCCCCCCC (stereo partly drawn) [galabiosyl ceramide]
VT1 binding to Daudi cell glycolipids ([3]; glycolipids contained in Daudi cells): VT1-binding
VT2 binding after digestion with αgalactosidase [4]: binding is removed
VT2 binding to glycolipid [4]: binds

digalactosyl diglyceride [DGDG]
verocytotoxin binding above background (125I-Protein A binding curves) [3]: No binding above background
verocytotoxin binding to glycolipid [3]: unreactive with the toxin
VT2 binding to glycolipid [4]: loss of VT2 binding; also recorded: do not bind
